Measured values published in ChEMBL document CHEMBL5226342, “Novel Reversible-Binding PET Ligands for Imaging Monoacylglycerol Lipase Based on the Piperazinyl Azetidine Scaffold” (J Med Chem, 2021).
The source made the active and inactive calls. The rule behind the calls is not given here.

Tests used:
[1] = molecular target: T1, Monoglyceride lipase (Mus musculus) (UniProt O35678); experiment: Irreversible inhibition of MAGL in mouse brain membrane fraction assessed as enzyme recovery by measuring FP-rhodamine reactivity at 50 nM preincubated for 30 mins followed by FP-rhodamine challenge for 5 to 180 mins by Activity-Based Protein Profiling analysis; assay type: cell membranes; conditions: time 35-210 min
T1 sequence (whole entry): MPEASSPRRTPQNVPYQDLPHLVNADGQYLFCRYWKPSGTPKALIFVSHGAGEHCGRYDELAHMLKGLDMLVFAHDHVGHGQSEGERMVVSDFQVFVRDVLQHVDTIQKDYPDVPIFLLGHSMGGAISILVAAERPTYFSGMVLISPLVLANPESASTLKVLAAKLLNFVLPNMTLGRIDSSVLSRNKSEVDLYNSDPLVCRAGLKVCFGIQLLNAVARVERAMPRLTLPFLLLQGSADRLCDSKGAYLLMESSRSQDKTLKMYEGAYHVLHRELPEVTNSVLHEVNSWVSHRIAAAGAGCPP

[2] = Drug uptake in iv dosed rhesus monkey cortex by PET imaging based analysis; assay type: ADME, organism-based, Macaca mulatta; conditions: in vivo
[3] = Drug uptake in iv dosed rhesus monkey cerebellum measured after 60 mins by PET imaging based analysis; assay type: ADME, organism-based, Macaca mulatta; conditions: in vivo, 1 h
[4] = Drug uptake in iv dosed CD-1 mouse small intestine measured after 60 mins by Ex vivo whole body biodistribution based analysis; assay type: ADME, organism-based; conditions: 1 h
[5] = Drug uptake in iv dosed rhesus monkey striatum measured after 60 mins by PET imaging based analysis; assay type: ADME, organism-based, Macaca mulatta; conditions: in vivo, 1 h
[6] = Drug uptake in iv dosed rhesus monkey pons measured after 60 mins by PET imaging based analysis; assay type: ADME, organism-based, Macaca mulatta; conditions: in vivo, 1 h
[7] = Drug uptake in iv dosed rhesus monkey hippocampus by PET imaging based analysis; assay type: ADME, organism-based, Macaca mulatta; conditions: in vivo
[8] = Metabolic stability of the compound in iv dosed Sprague-Dawley rat plasma assessed as parent compound remaining measured after 30 mins by radio-HPLC analysis; assay type: ADME, organism-based; conditions: read-out: Stability
[9] = Drug uptake in iv dosed rhesus monkey cerebellum by PET imaging based analysis; assay type: ADME, organism-based, Macaca mulatta; conditions: in vivo
[10] = Drug uptake in iv dosed rhesus monkey cortex measured after 60 mins by PET imaging based analysis; assay type: ADME, organism-based, Macaca mulatta; conditions: in vivo, 1 h
[11] = Drug uptake in iv dosed Sprague-Dawley rat pons measured for 90 mins by PET imaging based analysis; assay type: ADME, organism-based; conditions: in vivo, 1.5 h
[12] = Drug uptake in iv dosed rhesus monkey brain by PET imaging based analysis; assay type: ADME, organism-based, Macaca mulatta; conditions: in vivo
[13] = Drug uptake in iv dosed CD-1 mouse liver measured after 60 mins by Ex vivo whole body biodistribution based analysis; assay type: ADME, organism-based; conditions: 1 h
[14] = Drug uptake in iv dosed Sprague-Dawley rat hippocampus measured for 90 mins by PET imaging based analysis; assay type: ADME, organism-based; conditions: in vivo, 1.5 h
[15] = Metabolic stability of the compound in iv dosed Sprague-Dawley rat brain assessed as parent compound remaining measured after 30 mins by radio-HPLC analysis; assay type: ADME, organism-based; conditions: read-out: Stability
[16] = Drug uptake in iv dosed Sprague-Dawley rat cerebellum measured for 90 mins by PET imaging based analysis; assay type: ADME, organism-based; conditions: in vivo, 1.5 h
[17] = Metabolic stability of the compound in iv dosed Sprague-Dawley rat plasma assessed as parent compound remaining measured after 60 mins by radio-HPLC analysis; assay type: ADME, organism-based; conditions: read-out: Stability
[18] = Drug uptake in iv dosed rhesus monkey pons by PET imaging based analysis; assay type: ADME, organism-based, Macaca mulatta; conditions: in vivo
[19] = Drug uptake in iv dosed rhesus monkey hippocampus measured after 60 mins by PET imaging based analysis; assay type: ADME, organism-based, Macaca mulatta; conditions: in vivo, 1 h
[20] = Metabolic stability of the compound in iv dosed Sprague-Dawley rat brain assessed as parent compound remaining measured after 60 mins by radio-HPLC analysis; assay type: ADME, organism-based; conditions: read-out: Stability
[21] = Drug uptake in iv dosed CD-1 mouse heart measured after 60 mins by Ex vivo whole body biodistribution based analysis; assay type: ADME, organism-based; conditions: 1 h
[22] = Drug uptake in mouse brain treated with MAGL inhibitor, JNJ-42226314 at 15 mins post-drug administration by PET imaging based analysis; assay type: ADME, tissue-based; conditions: in vivo, 0.25 h
[23] = Drug uptake in iv dosed CD-1 mouse lung measured after 60 mins by Ex vivo whole body biodistribution based analysis; assay type: ADME, organism-based; conditions: 1 h
[24] = Drug uptake in iv dosed rhesus monkey striatum by PET imaging based analysis; assay type: ADME, organism-based, Macaca mulatta; conditions: in vivo
[25] = Drug uptake in iv dosed Sprague-Dawley rat striatum measured for 90 mins by PET imaging based analysis; assay type: ADME, organism-based; conditions: in vivo, 1.5 h
[26] = Drug uptake in iv dosed Sprague-Dawley rat cerebral cortex measured for 90 mins by PET imaging based analysis; assay type: ADME, organism-based; conditions: in vivo, 1.5 h
[27] = Drug uptake in iv dosed CD-1 mouse pancreas measured after 60 mins by Ex vivo whole body biodistribution based analysis; assay type: ADME, organism-based; conditions: 1 h
[28] = Drug uptake in iv dosed CD-1 mouse kidney measured after 60 mins by Ex vivo whole body biodistribution based analysis; assay type: ADME, organism-based; conditions: 1 h

In the case of O=C(ON1C(=O)CCC1=O)N1CCN(C(c2ccc(Cl)cc2)c2ccc(Cl)cc2)CC1, the inhibition [1] was “Active”.
For O=C(c1ccc2c(ccn2-c2ccc([18F])cc2)c1)N1CC(N2CCN(C(=O)c3nccs3)CC2)C1, the Drug uptake [2] was “Active”, the Drug uptake [3] was “Not Active” and the Drug uptake [4] was “Active”. The Drug uptake [5] was “Not Active”, the Drug uptake [6] was “Not Active” and the Drug uptake [7] was “Active”. For the same compound, the remaining at 0.5 h [8] was 81%, the Drug uptake [9] was “Active” and the Drug uptake [10] was “Not Active”. For the same compound, the Drug uptake [11] was “Active”, the SUVmax [12] was 0.9 and the Drug uptake [13] was “Active”. For the same compound, the Drug uptake [14] was “Active”, the remaining at 0.5 h [15] was 97% and the Drug uptake [16] was “Active”. For the same compound, the remaining at 1 h [17] was 56%, the Drug uptake [18] was “Active” and the Drug uptake [19] was “Not Active”. For the same compound, the remaining at 1 h [20] was 94%, the Drug uptake [21] was “Not Active” and the Drug uptake [22] was “Not Active”. For the same compound, the Drug uptake [23] was “Not Active”, the Drug uptake [24] was “Active” and the Drug uptake [25] was “Active”. The SUVmax [26] was 0.8, the Drug uptake [27] was “Not Active” and the Drug uptake [28] was “Not Active”.
